Data taken from ChEMBL document CHEMBL5046233, “Nitroxoline and its derivatives are potent inhibitors of metallo-β-lactamases” (Eur J Med Chem, 2022).
Converted amounts (≈) assume the structure as drawn. The source made the active and inactive calls. The calls are words filed in the database; no cut-off is given here.

Experiments:
Escherichia coli [1] = experiment: Potentiation of imipenem-induced antibacterial activity against Escherichia coli T2433 expressing OXA-48 assessed as imipenem MIC at 32 mg/L by CLSI protocol based broth microdilution assay; type: functional
Pseudomonas aeruginosa [2] = experiment: Potentiation of imipenem-induced antibacterial activity against Pseudomonas aeruginosa T2217 expressing VIM-2 assessed as fold change in imipenem MIC at 32 mg/L by CLSI protocol based broth microdilution assay; type: functional
Escherichia coli [3] = experiment: Potentiation of imipenem-induced antibacterial activity against Escherichia coli T2359 expressing NDM-1 assessed as fold change in imipenem MIC at 32 mg/L by CLSI protocol based broth microdilution assay; type: functional
Bacteria = experiment: Inhibition of recombinant VIM-1 (unknown origin) using fluorocillin as substrate at 3 uM incubated for 30 mins by fluorescence based assay
Klebsiella pneumoniae [4] = experiment: Potentiation of piperacillin-induced antibacterial activity against Klebsiella pneumoniae clinical isolate T2301 expressing NDM-1 assessed as piperacillin MIC at 32 mg/L by CLSI protocol based broth microdilution assay; type: functional
Klebsiella pneumoniae [5] = experiment: Antimicrobial activity against Klebsiella pneumoniae T2301 expressing NDM-1 assessed as inhibition of bacterial growth at 0.5XMIC for 6 hrs by CLSI protocol based broth microdilution assay; type: functional, organism-based
Escherichia coli [6] = experiment: Antimicrobial activity against Escherichia coli T2359 expressing NDM-1 assessed as inhibition of bacterial growth by CLSI protocol based broth microdilution assay; type: functional
Citrobacter freundii [7] = experiment: Potentiation of imipenem-induced antibacterial activity against Citrobacter freundii T2431 expressing KPC-3 assessed as fold change in imipenem MIC at 32 mg/L by CLSI protocol based broth microdilution assay; type: functional
Escherichia coli [8] = experiment: Potentiation of ceftazidime-induced antibacterial activity against Escherichia coli clinical isolate T2228 expressing VIM-1 assessed as ceftazidime MIC at 32 mg/L by CLSI protocol based broth microdilution assay; type: functional
Pseudomonas aeruginosa [9] = experiment: Potentiation of imipenem-induced antibacterial activity against Pseudomonas aeruginosa T2325 expressing IMP-1 assessed as imipenem MIC at 32 mg/L by CLSI protocol based broth microdilution assay; type: functional
Enterobacter cloacae [10] = experiment: Potentiation of imipenem-induced antibacterial activity against Enterobacter cloacae T2311 expressing NDM-1 assessed as imipenem MIC at 32 mg/L by CLSI protocol based broth microdilution assay; type: functional
Escherichia coli [11] = experiment: Antimicrobial activity against Escherichia coli clinical isolate T2228 expressing VIM-1 assessed as inhibition of bacterial growth by CLSI protocol based broth microdilution assay; type: functional
Pseudomonas aeruginosa [12] = experiment: Potentiation of imipenem-induced antibacterial activity against Pseudomonas aeruginosa T2282 expressing VIM-2 assessed as fold change in imipenem MIC at 32 mg/L by CLSI protocol based broth microdilution assay; type: functional
Escherichia coli [13] = experiment: Potentiation of gentamicin-induced antibacterial activity against Escherichia coli clinical isolate T2228 expressing VIM-1 assessed as gentamicin MIC at 32 mg/L by CLSI protocol based broth microdilution assay; type: functional
Escherichia coli [14] = experiment: Potentiation of imipenem-induced antibacterial activity against Escherichia coli T2544 expressing VIM-1 assessed as fold change in imipenem MIC at 32 mg/L by CLSI protocol based broth microdilution assay; type: functional
Escherichia coli [15] = experiment: Synergistic antibacterial activity against Escherichia coli clinical isolate T2228 expressing VIM-1 assessed as fractional inhibitory concentration index in presence of imipenem by checkerboard assay; type: functional
Escherichia coli [16] = experiment: Antimicrobial activity against Escherichia coli T2359 expressing VIM-1 assessed as inhibition of bacterial growth at 0.5XMIC for 6 hrs by CLSI protocol based broth microdilution assay; type: functional, organism-based
Enterobacter cloacae [17] = experiment: Potentiation of imipenem-induced antibacterial activity against Enterobacter cloacae T2353 expressing VIM-1 assessed as imipenem MIC at 32 mg/L by CLSI protocol based broth microdilution assay; type: functional
Pseudomonas aeruginosa [18] = experiment: Potentiation of imipenem-induced antibacterial activity against Pseudomonas aeruginosa T2229 expressing SPM-1 assessed as imipenem MIC at 32 mg/L by CLSI protocol based broth microdilution assay; type: functional
Klebsiella pneumoniae [19] = experiment: Synergistic antibacterial activity against Klebsiella pneumoniae clinical isolate T2301 expressing NDM-1 assessed as fractional inhibitory concentration index in presence of imipenem by checkerboard assay; type: functional
Klebsiella pneumoniae [20] = experiment: Antimicrobial activity against Klebsiella pneumoniae T2301 expressing NDM-1 assessed as assessed as inhibition of bacterial growth at 0.5XMIC measured after 24 hrs by time-kill assay; type: functional, organism-based
Escherichia coli [21] = experiment: Bactericidal activity against Escherichia coli T2359 expressing VIM-1 assessed as killing rate at 0.5 XMIC measured after 24 hrs in presence of imipenem by time-kill assay relative to control; type: functional
Escherichia coli [22] = experiment: Potentiation of imipenem-induced antibacterial activity against Escherichia coli T2351 expressing NDM-5 assessed as imipenem MIC at 32 mg/L by CLSI protocol based broth microdilution assay; type: functional
Citrobacter freundii [23] = experiment: Potentiation of imipenem-induced antibacterial activity against Citrobacter freundii T2354 expressing VIM-4 assessed as fold change in imipenem MIC at 32 mg/L by CLSI protocol based broth microdilution assay; type: functional
Enterobacter cloacae [24] = experiment: Potentiation of imipenem-induced antibacterial activity against Enterobacter cloacae T2353 expressing VIM-1 assessed as fold change in imipenem MIC at 32 mg/L by CLSI protocol based broth microdilution assay; type: functional
Escherichia coli [25] = experiment: Antimicrobial activity against Escherichia coli T2544 expressing VIM-1 assessed as inhibition of bacterial growth by CLSI protocol based broth microdilution assay; type: functional
HUVEC = experiment: Cytotoxicity against HUVEC cells assessed as late apoptosis by analysing number of sub-diploid events at 0.03 to 100 ug/mL measured after 24 hrs by propidium iodide staining based flow cytometry analysis; type: toxicity, cell-based; settings: human, dose 0.03-100 µg/ml
[26] = Inhibition of recombinant NDM-1 (unknown origin) using fluorocillin as substrate at 30 uM incubated for 30 mins by fluorescence based assay; settings: Bacteria
Citrobacter freundii [27] = experiment: Potentiation of imipenem-induced antibacterial activity against Citrobacter freundii T2431 expressing KPC-3 assessed as imipenem MIC at 32 mg/L by CLSI protocol based broth microdilution assay; type: functional
Pseudomonas aeruginosa [28] = experiment: Potentiation of imipenem-induced antibacterial activity against Pseudomonas aeruginosa T1098 expressing IMP-7 assessed as fold change in imipenem MIC at 32 mg/L by CLSI protocol based broth microdilution assay; type: functional
Pseudomonas aeruginosa [29] = experiment: Potentiation of imipenem-induced antibacterial activity against Pseudomonas aeruginosa T2357 expressing VIM-1 assessed as fold change in imipenem MIC at 32 mg/L by CLSI protocol based broth microdilution assay; type: functional
Klebsiella pneumoniae [30] = experiment: Bactericidal activity against Klebsiella pneumoniae T2301 expressing NDM-1 assessed as killing rate at 0.5 X MIC measured after 24 hrs in presence of imipenem by time-kill assay relative to control; type: functional
Pseudomonas aeruginosa [31] = experiment: Potentiation of imipenem-induced antibacterial activity against Pseudomonas aeruginosa T2325 expressing IMP-1 assessed as fold change in imipenem MIC at 32 mg/L by CLSI protocol based broth microdilution assay; type: functional
Klebsiella pneumoniae [32] = experiment: Potentiation of imipenem-induced antibacterial activity against Klebsiella pneumoniae T2216 expressing VIM-1 assessed as imipenem MIC at 32 mg/L by CLSI protocol based broth microdilution assay; type: functional
[33] = Cytotoxicity against human HUVEC cells assessed as metabolic activity measured after 24 hrs by cell-titer blue assay; type: toxicity, cell-based

In the case of N#CCN(Cc1ccccc1)Cc1cc([N+](=O)[O-])c2cccnc2c1O, the MIC (Escherichia coli [1]) is reported as 2 ng/mL, the “fold change (FC)” value (Pseudomonas aeruginosa [2]) is reported as 16 and the “fold change (FC)” value (Escherichia coli [3]) is reported as 256. The inhibition (Bacteria) was 98%, the MIC (Klebsiella pneumoniae [4]) was 2050 ng/mL and the inhibition (Klebsiella pneumoniae [5]) was “Active”. For the same compound, the MIC (Escherichia coli [6]) was greater than 64 ng/mL, the “fold change (FC)” value (Citrobacter freundii [7]) was 2 and the MIC (Escherichia coli [8]) was 60 ng/mL. It also gave an MIC (Pseudomonas aeruginosa [9]) of 1 ng/mL, an MIC (Enterobacter cloacae [10]) of 0.5 ng/mL and an MIC (Escherichia coli [11]) greater than 67 ng/mL. For the same compound, the “fold change (FC)” value (Pseudomonas aeruginosa [12]) was 32, the MIC (Escherichia coli [13]) was 2 ng/mL and the “fold change (FC)” value (Escherichia coli [14]) was 64. For the same compound, the “fractional inhibitory concentration index (FICI)” value (Escherichia coli [15]) was 0.265, the inhibition (Escherichia coli [16]) was “Active” and the MIC (Enterobacter cloacae [17]) was 1 ng/mL. The MIC (Pseudomonas aeruginosa [18]) was 32 ng/mL, the “fractional inhibitory concentration index (FICI)” value (Klebsiella pneumoniae [19]) was 0.265 and the Activity (Klebsiella pneumoniae [20]) was “inactive”. The Activity (Escherichia coli [21]) was greater than 99.9%, the MIC (Escherichia coli [22]) was 1 ng/mL and the “fold change (FC)” value (Citrobacter freundii [23]) was 8. For the same compound, the “fold change (FC)” value (Enterobacter cloacae [24]) was 8, the MIC (Escherichia coli [25]) was greater than 65 ng/mL and the Activity (HUVEC) was “Toxic”. The inhibition [26] was 96%, the MIC (Citrobacter freundii [27]) was 4 ng/mL and the “fold change (FC)” value (Pseudomonas aeruginosa [28]) was 8. The “fold change (FC)” value (Pseudomonas aeruginosa [29]) was 32, the Activity (Klebsiella pneumoniae [30]) was greater than 99.9% and the “fold change (FC)” value (Pseudomonas aeruginosa [31]) was 32. For the same compound, the MIC (Klebsiella pneumoniae [32]) was 0.5 ng/mL and the IC50 at 24 h [33] was 45000 ng/mL (≈ 129 µM).
